# Experimental data from patent US7799781B2, “5,6,7,8-tetrahydropteridine derivatives as HSP90 inhibitors” (AstraZeneca AB, priority 2007, dated 2010).
# Target: T1, HSP90α (Homo sapiens, UniProt P07900)
# T1 construct: 6H is tagged HSP90α protein (amino acids 2-732) expressed in E. coli; 6His; made in house; host or cells: E. coli
# Test: Test (a) In Vitro Binding Assay (fluorescence polarisation, binding to the ATP pocket of HSP90α)
# Settings: for IC50: FP probe displacement, geometric mean where tested more than once; for activity in the enzyme assay, test (a): verbal assessment
# Procedure: Test (a) In Vitro Binding Assay
# Test (a) measures the ability of a compound to bind to the ATP pocket of HSP90α. 6H is tagged HSP90α protein (amino acids 2-732) expressed in E. coli was purified and stored at −80° C. in aliquots. Assay measurements were performed in assay buffer comprising 20 mM HEPES pH 7.4, 50 mM KCl, 20 mM NaHMoO4, 0.01% Nonidet P40, 2 mM DTT and 0.1 mg/ml BSA. Following resuspension in DMSO, the FP probe 3-[[5-(5-ethyl-2,4-dihydroxy-phenyl)-4-(4-methoxyphenyl)2H-pyrazole-3-carbonyl]amino]propyl-Cy3B-amide; 14-(2-{[3-({[3-(5-ethyl-2,4-dihydroxyphenyl)-4-(4-methoxyphenyl)-1H-pyrazol-5-yl]carbonyl}amino)propyl]amino}-2-oxoethyl)-16,16,18,18-tetramethyl-2-sulfo-6,7,7a,8a,9,10,16,18-octahydrobenzo[2″,3″]indolizino [8″,7″:5′,6′]pyrano[3′,2′:3,4]pyrido[1,2-a]indol-5-ium) was diluted to a final concentration of 5 nM in assay buffer. Test compounds were prepared by dilution in 100% DMSO to give the appropriate dose range and dispensed into a 384 well assay plate as a 6X concentrate. Upon addition of recombinant HSP90α to a final assay concentration of 1 μg/ml, FP probe was added and plates incubated at room temperature for 1 to 4 hours. Final DMSO concentration was 1% in a total assay volume of 18 μl. Fluorescence Polarisation measurements were made using a Tecan Ultra plate reader using an excitation wavelength of 530 nm and an emission wavelength of 590 nm. Millipolarisation (mP) values were estimated using Xfluor software.
# The data in the above table was generated in an assay substantially as described above in relation to in-vitro Binding Assay (a). Some of the compounds shown in the table were tested more than once in the assay. For those compounds the IC50 value shown is the geometric mean of the measured IC50 values. Therefore, as will be understood, the IC50 values quoted above are not absolute and further measurements of the IC50 values may result in a different mean IC50 value.
Compound,IC50 [nM],"activity in the enzyme assay, test (a)"
"COc1c(C)cnc(CN2CC(=O)N(C)c3cnc(N)nc32)c1C [Example 4.3, 2-amino-8-[(4-methoxy-3,5-dimethylpyridin-2-yl)methyl]-5-methyl-7,8-dihydropteridin-6(5H)-one]",330,
"COc1c(C)cnc(CN2CC(=O)N(CCC(C)C)c3c(Cl)nc(N)nc32)c1C [Example 11.6, 2-amino-4-chloro-8-[(4-methoxy-3,5-dimethylpyridin-2-yl)methyl]-5-(3-methylbutyl)-7,8-dihydropteridin-6(5H)-one]",96.8,
"CCCN1C(=O)CN(Cc2ncc(C)c(OC)c2C)c2nc(N)ncc21 [Example 11.19, 2-amino-8-[(4-methoxy-3,5-dimethylpyridin-2-yl)methyl]-5-propyl-7,8-dihydropteridin-6(5H)-one]",619,
"COc1c(C)cnc(CN2c3nc(N)ncc3N(C)C[C@@H]2C)c1C [Example 6.1, (7S)-8-[(4-methoxy-3,5-dimethylpyridin-2-yl)methyl]-5,7-dimethyl-5,6,7,8-tetrahydropteridin-2-amine]",152000,low activity
"COc1c(C)cnc(CN2c3nc(N)ncc3N(CC(C)(C)N(C)C)C(=O)[C@H]2C)c1C [Example 11.12, (7R)-2-amino-5-[2-(dimethylamino)-2-methylpropyl]-8-[(4-methoxy-3,5-dimethylpyridin-2-yl)methyl]-7-methyl-7,8-dihydropteridin-6(5H)-one]",16000,
"COc1c(C)cnc(CN2c3nc(N)ncc3NC(=O)[C@H]2C)c1C [Example 2.2, (7R)-2-amino-8-[(4-methoxy-3,5-dimethylpyridin-2-yl)methyl]-7-methyl-7,8-dihydropteridin-6(5H)-one]",857,
"COc1c(C)cnc(CN2c3nc(N)ncc3N(CCCN(C)C)C(=O)[C@H]2C)c1C [Example 11.13, (7R)-2-amino-5-[3-(dimethylamino)propyl]-8-[(4-methoxy-3,5-dimethylpyridin-2-yl)methyl]-7-methyl-7,8-dihydropteridin-6(5H)-one]",4850,
"COCCCN1C(=O)CN(Cc2ncc(C)c(OC)c2C)c2nc(N)ncc21 [Example 11.1, 2-amino-8-[(4-methoxy-3,5-dimethylpyridin-2-yl)methyl]-5-(3-methoxypropyl)-7,8-dihydropteridin-6(5H)-one]",1940,
"COc1c(C)cnc(CN2c3nc(N)ncc3N(CCN3CCNC3=O)C(=O)[C@H]2C)c1C [Example 11.20, (7R)-2-amino-8-[(4-methoxy-3,5-dimethylpyridin-2-yl)methyl]-7-methyl-5-[2-(2-oxoimidazolidin-1-yl)ethyl]-7,8-dihydropteridin-6(5H)-one]",2680,
"COc1c(C)cnc(CN2c3nc(N)ncc3N(CCc3ccccc3)C(=O)[C@H]2C)c1C [Example 11.2, (7R)-2-amino-8-[(4-methoxy-3,5-dimethylpyridin-2-yl)methyl]-7-methyl-5-(2-phenylethyl)-7,8-dihydropteridin-6(5H)-one]",128,
"COc1c(C)cnc(CN2CCN(C)c3cnc(N)nc32)c1C [Example 6.4, 8-[(4-methoxy-3,5-dimethylpyridin-2-yl)methyl]-5-methyl-5,6,7,8-tetrahydropteridin-2-amine]",13000,
"COc1c(C)cnc(CN2CC(=O)Nc3c(SC)nc(N)nc32)c1C [Example 9, 2-Amino-8-[(4-methoxy-3,5-dimethyl-pyridin-2-yl)methyl]-4-methylsulfanyl-5,7-dihydropteridin-6-one]",1390,
"COc1c(C)cnc(CN2c3nc(N)ncc3N(CCc3cccnc3)C(=O)[C@H]2C)c1C [Example 11.16, (7R)-2-amino-8-[(4-methoxy-3,5-dimethylpyridin-2-yl)methyl]-7-methyl-5-(2-pyridin-3-ylethyl)-7,8-dihydropteridin-6(5H)-one]",542,
"COc1c(C)cnc(CN2c3nc(N)ncc3NC[C@@H]2C)c1C [Example 5, (7S)-8-[(4-methoxy-3,5-dimethylpyridin-2-yl)methyl]-7-methyl-5,6,7,8-tetrahydropteridin-2-amine]",81100,low activity
"COc1c(C)cnc(CN2c3nc(N)ncc3N(Cc3ccccc3)C(=O)[C@H]2C)c1C [Example 11.9, (7R)-2-amino-5-benzyl-8-[(4-methoxy-3,5-dimethylpyridin-2-yl)methyl]-7-methyl-7,8-dihydropteridin-6(5H)-one]",324,
"COc1c(C)cnc(CN2c3nc(N)ncc3N(CCc3ccncc3)C(=O)[C@H]2C)c1C [Example 11.15, (7R)-2-amino-8-[(4-methoxy-3,5-dimethylpyridin-2-yl)methyl]-7-methyl-5-(2-pyridin-4-ylethyl)-7,8-dihydropteridin-6(5H)-one]",563,
"COc1c(C)cnc(CN2c3nc(N)ncc3NC(=O)[C@H]2CC(=O)O)c1C [Example 12, {(7R)-2-amino-8-[(4-methoxy-3,5-dimethylpyridin-2-yl)methyl]-6-oxo-5,6,7,8-tetrahydropteridin-7-yl}acetic acid]",7340,
"COc1c(C)cnc(CN2c3nc(N)ncc3NC[C@H]2C)c1C [Example 6.2, (7R)-8-[(4-methoxy-3,5-dimethylpyridin-2-yl)methyl]-7-methyl-5,6,7,8-tetrahydropteridin-2-amine]",2870,
"CCC[C@H]1C(=O)Nc2cnc(N)nc2N1Cc1ncc(C)c(OC)c1C [Example 2.1, (7S)-2-amino-8-[(4-methoxy-3,5-dimethylpyridin-2-yl)methyl]-7-propyl-7,8-dihydropteridin-6(5H)-one]",14800,
